# Test results: patent publication US20230049952A1, “METHODS AND COMPOUNDS FOR RESTORING MUTANT P53 FUNCTION” (PMV Pharmaceuticals, Inc., priority 2020, published 2023)
# Tested on: NF-κB signaling pathway in MT373 tumors
# Experiment: MT373 syngeneic sarcoma model: mouse NF-κB signaling pathway profiling panel
# Format: in vivo
smiles,measurement,setting,value
"CCn1c(C#CCNc2ccccc2)cc2cc(CNC3CCN(C)CC3)ccc21 [Compound 1, 1-Anilino-3-{1-ethyl-5-[(1-methyl-4-piperidylamino)methyl]-1H-indol-2-yl}-2-propyne]",Card10 fold increase over or percent reduction vs vehicle control,"150 mg/kg BIDx1, 72 h",1.39 ± 0.49 fold or %
same,Card11 fold increase over or percent reduction vs vehicle control,"150 mg/kg BIDx1, 72 h",1.52 ± 0.54 fold or %
same,Casp1 fold increase over or percent reduction vs vehicle control,"150 mg/kg BIDx1, 72 h",9.73 ± 31.75 fold or %
same,Casp8 fold increase over or percent reduction vs vehicle control,"150 mg/kg BIDx1, 72 h",1.04 ± 0.13 fold or %
same,Ccl2 fold increase over or percent reduction vs vehicle control,"150 mg/kg BIDx1, 72 h",52.53 ± 13.14 fold or %
same,Ccl5 fold increase over or percent reduction vs vehicle control,"150 mg/kg BIDx1, 72 h",2.54 ± 37.88 fold or %
same,Cd27 fold increase over or percent reduction vs vehicle control,"150 mg/kg BIDx1, 72 h",1.53 ± 0.39 fold or %
same,Cd40 fold increase over or percent reduction vs vehicle control,"150 mg/kg BIDx1, 72 h",20.33 ± 32.50 fold or %
same,Cflar fold increase over or percent reduction vs vehicle control,"150 mg/kg BIDx1, 72 h",1.10 ± 0.20 fold or %
same,Chuk fold increase over or percent reduction vs vehicle control,"150 mg/kg BIDx1, 72 h",5.62 ± 25.53 fold or %
same,Crebbp fold increase over or percent reduction vs vehicle control,"150 mg/kg BIDx1, 72 h",1.12 ± 0.15 fold or %
same,Csf1 fold increase over or percent reduction vs vehicle control,"150 mg/kg BIDx1, 72 h",3.08 ± 4.37 fold or %
same,Csf2 fold increase over or percent reduction vs vehicle control,"150 mg/kg BIDx1, 72 h",5.23 ± 19.46 fold or %
same,Csf3 fold increase over or percent reduction vs vehicle control,"150 mg/kg BIDx1, 72 h",46.68 ± 13.40 fold or %
same,Egfr fold increase over or percent reduction vs vehicle control,"150 mg/kg BIDx1, 72 h",1.01 ± 0.23 fold or %
same,Egr1 fold increase over or percent reduction vs vehicle control,"150 mg/kg BIDx1, 72 h",66.09 ± 6.29 fold or %
same,Eif2ak2 fold increase over or percent reduction vs vehicle control,"150 mg/kg BIDx1, 72 h",5.36 ± 11.08 fold or %
same,Elk1 fold increase over or percent reduction vs vehicle control,"150 mg/kg BIDx1, 72 h",19.15 ± 11.29 fold or %
same,F2r fold increase over or percent reduction vs vehicle control,"150 mg/kg BIDx1, 72 h",14.84 ± 13.77 fold or %
same,Fadd fold increase over or percent reduction vs vehicle control,"150 mg/kg BIDx1, 72 h",1.25 ± 0.13 fold or %
same,Fasl fold increase over or percent reduction vs vehicle control,"150 mg/kg BIDx1, 72 h",42.85 ± 19.54 fold or %
same,Fos fold increase over or percent reduction vs vehicle control,"150 mg/kg BIDx1, 72 h",86.19 ± 1.00 fold or %
same,Hmox1 fold increase over or percent reduction vs vehicle control,"150 mg/kg BIDx1, 72 h",1.03 ± 0.18 fold or %
same,Icam1 fold increase over or percent reduction vs vehicle control,"150 mg/kg BIDx1, 72 h",1.07 ± 0.18 fold or %
same,Ifng fold increase over or percent reduction vs vehicle control,"150 mg/kg BIDx1, 72 h",22.04 ± 33.20 fold or %
same,Ikbkb fold increase over or percent reduction vs vehicle control,"150 mg/kg BIDx1, 72 h",1.24 ± 0.27 fold or %
same,Ikbke fold increase over or percent reduction vs vehicle control,"150 mg/kg BIDx1, 72 h",2.05 ± 40.34 fold or %
same,Ikbkg fold increase over or percent reduction vs vehicle control,"150 mg/kg BIDx1, 72 h",1.06 ± 0.32 fold or %
same,Il1a fold increase over or percent reduction vs vehicle control,"150 mg/kg BIDx1, 72 h",63.60 ± 11.55 fold or %
same,Il1b fold increase over or percent reduction vs vehicle control,"150 mg/kg BIDx1, 72 h",84.09 ± 6.24 fold or %
same,Il1r1 fold increase over or percent reduction vs vehicle control,"150 mg/kg BIDx1, 72 h",9.26 ± 29.81 fold or %
same,Il10 fold increase over or percent reduction vs vehicle control,"150 mg/kg BIDx1, 72 h",12.42 ± 41.31 fold or %
same,Irak1 fold increase over or percent reduction vs vehicle control,"150 mg/kg BIDx1, 72 h",4.37 ± 14.84 fold or %
same,Irak2 fold increase over or percent reduction vs vehicle control,"150 mg/kg BIDx1, 72 h",1.07 ± 0.14 fold or %
same,Irf1 fold increase over or percent reduction vs vehicle control,"150 mg/kg BIDx1, 72 h",1.06 ± 0.20 fold or %
same,Jun fold increase over or percent reduction vs vehicle control,"150 mg/kg BIDx1, 72 h",26.30 ± 10.41 fold or %
same,Lta fold increase over or percent reduction vs vehicle control,"150 mg/kg BIDx1, 72 h",26.12 ± 35.38 fold or %
same,Ltbr fold increase over or percent reduction vs vehicle control,"150 mg/kg BIDx1, 72 h",1.05 ± 0.08 fold or %
same,Map3k1 fold increase over or percent reduction vs vehicle control,"150 mg/kg BIDx1, 72 h",1.25 ± 0.28 fold or %
same,Mapk3 fold increase over or percent reduction vs vehicle control,"150 mg/kg BIDx1, 72 h",1.22 ± 0.17 fold or %
same,Myd88 fold increase over or percent reduction vs vehicle control,"150 mg/kg BIDx1, 72 h",37.76 ± 10.69 fold or %
same,Nfkb1 fold increase over or percent reduction vs vehicle control,"150 mg/kg BIDx1, 72 h",1.06 ± 0.05 fold or %
same,Nfkb2 fold increase over or percent reduction vs vehicle control,"150 mg/kg BIDx1, 72 h",1.30 ± 0.23 fold or %
same,Nfkbia fold increase over or percent reduction vs vehicle control,"150 mg/kg BIDx1, 72 h",6.09 ± 32.11 fold or %
same,Nod1 fold increase over or percent reduction vs vehicle control,"150 mg/kg BIDx1, 72 h",1.26 ± 0.26 fold or %
same,Raf1 fold increase over or percent reduction vs vehicle control,"150 mg/kg BIDx1, 72 h",4.12 ± 9.21 fold or %
same,Rel fold increase over or percent reduction vs vehicle control,"150 mg/kg BIDx1, 72 h",1.09 ± 0.23 fold or %
same,Rela fold increase over or percent reduction vs vehicle control,"150 mg/kg BIDx1, 72 h",1.01 ± 0.08 fold or %
same,Relb fold increase over or percent reduction vs vehicle control,"150 mg/kg BIDx1, 72 h",3.68 ± 22.32 fold or %
same,Ripk1 fold increase over or percent reduction vs vehicle control,"150 mg/kg BIDx1, 72 h",1.11 ± 0.09 fold or %
same,Ripk2 fold increase over or percent reduction vs vehicle control,"150 mg/kg BIDx1, 72 h",29.79 ± 5.69 fold or %
same,Slc20a1 fold increase over or percent reduction vs vehicle control,"150 mg/kg BIDx1, 72 h",36.31 ± 7.52 fold or %
same,Smad3 fold increase over or percent reduction vs vehicle control,"150 mg/kg BIDx1, 72 h",1.09 ± 0.18 fold or %
same,Stat1 fold increase over or percent reduction vs vehicle control,"150 mg/kg BIDx1, 72 h",1.20 ± 0.20 fold or %
same,Tbk1 fold increase over or percent reduction vs vehicle control,"150 mg/kg BIDx1, 72 h",1.17 ± 0.15 fold or %
same,Tlr1 fold increase over or percent reduction vs vehicle control,"150 mg/kg BIDx1, 72 h",1.52 ± 0.56 fold or %
same,Tlr2 fold increase over or percent reduction vs vehicle control,"150 mg/kg BIDx1, 72 h",1.05 ± 0.16 fold or %
same,Tlr3 fold increase over or percent reduction vs vehicle control,"150 mg/kg BIDx1, 72 h",5.46 ± 14.97 fold or %
same,Tlr4 fold increase over or percent reduction vs vehicle control,"150 mg/kg BIDx1, 72 h",1.13 ± 0.27 fold or %
same,Tlr6 fold increase over or percent reduction vs vehicle control,"150 mg/kg BIDx1, 72 h",1.25 ± 0.31 fold or %
same,Tlr9 fold increase over or percent reduction vs vehicle control,"150 mg/kg BIDx1, 72 h",1.78 ± 0.32 fold or %
same,Tnf fold increase over or percent reduction vs vehicle control,"150 mg/kg BIDx1, 72 h",3.41 ± 24.15 fold or %
same,Tnfaip3 fold increase over or percent reduction vs vehicle control,"150 mg/kg BIDx1, 72 h",10.12 ± 40.91 fold or %
same,Tnfrsf1a fold increase over or percent reduction vs vehicle control,"150 mg/kg BIDx1, 72 h",1.18 ± 0.13 fold or %
same,Tnfrsf1b fold increase over or percent reduction vs vehicle control,"150 mg/kg BIDx1, 72 h",1.52 ± 0.29 fold or %
same,Tnfrsf10b fold increase over or percent reduction vs vehicle control,"150 mg/kg BIDx1, 72 h",1.17 ± 0.22 fold or %
same,Tnfsf10 fold increase over or percent reduction vs vehicle control,"150 mg/kg BIDx1, 72 h",1.09 ± 0.21 fold or %
same,Tnfsf14 fold increase over or percent reduction vs vehicle control,"150 mg/kg BIDx1, 72 h",1.34 ± 0.30 fold or %
same,Tollip fold increase over or percent reduction vs vehicle control,"150 mg/kg BIDx1, 72 h",1.11 ± 0.10 fold or %
same,Tradd fold increase over or percent reduction vs vehicle control,"150 mg/kg BIDx1, 72 h",1.10 ± 0.24 fold or %
same,Traf2 fold increase over or percent reduction vs vehicle control,"150 mg/kg BIDx1, 72 h",1.17 ± 0.13 fold or %
same,Traf3 fold increase over or percent reduction vs vehicle control,"150 mg/kg BIDx1, 72 h",3.24 ± 6.50 fold or %
same,Traf5 fold increase over or percent reduction vs vehicle control,"150 mg/kg BIDx1, 72 h",1.24 ± 0.14 fold or %
same,Traf6 fold increase over or percent reduction vs vehicle control,"150 mg/kg BIDx1, 72 h",1.17 ± 0.24 fold or %
same,Zap70 fold increase over or percent reduction vs vehicle control,"150 mg/kg BIDx1, 72 h",1.52 ± 0.48 fold or %
same,Agt fold increase over or percent reduction vs vehicle control,"150 mg/kg BIDx1, […]",50.51 ± 41.92 fold or %
same,Akt1 fold increase over or percent reduction vs vehicle control,"150 mg/kg BIDx1, […]",8.16 ± 7.88 fold or %
same,Atf1 fold increase over or percent reduction vs vehicle control,"150 mg/kg BIDx1, […]",1.13 ± 0.30 fold or %
same,Atf2 fold increase over or percent reduction vs vehicle control,"150 mg/kg BIDx1, […]",1.00 ± 0.20 fold or %
same,Bcl2a1a fold increase over or percent reduction vs vehicle control,"150 mg/kg BIDx1, […]",4.90 ± 3.38 fold or %
same,Bcl2l1 fold increase over or percent reduction vs vehicle control,"150 mg/kg BIDx1, […]",1.00 ± 0.07 fold or %
same,Bcl3 fold increase over or percent reduction vs vehicle control,"150 mg/kg BIDx1, […]",14.36 ± 16.67 fold or %
same,Bcl10 fold increase over or percent reduction vs vehicle control,"150 mg/kg BIDx1, […]",1.18 ± 0.09 fold or %
same,Birc3 fold increase over or percent reduction vs vehicle control,"150 mg/kg BIDx1, […]",1.10 ± 0.26 fold or %
same,Card10 fold increase over or percent reduction vs vehicle control,"150 mg/kg BIDx1, […]",40.14 ± 8.96 fold or %
same,Card11 fold increase over or percent reduction vs vehicle control,"150 mg/kg BIDx1, […]",1.85 ± 0.30 fold or %
same,Casp1 fold increase over or percent reduction vs vehicle control,"150 mg/kg BIDx1, […]",1.82 ± 0.71 fold or %
same,Casp8 fold increase over or percent reduction vs vehicle control,"150 mg/kg BIDx1, […]",1.14 ± 0.07 fold or %
same,Ccl2 fold increase over or percent reduction vs vehicle control,"150 mg/kg BIDx1, […]",1.47 ± 0.35 fold or %
